We go through two compounds from PMC9628989 (Antiviral Research, 2007).

Like-named read-outs stand apart in the source and are kept apart here.

For data set [1] the following is noted: in vivo; cited from earlier work.
For data set [2] the following is noted: CD-1, mouse, s9, 0 h, pH 7.4.
For data set [3] the following is noted: cynomolgus monkey, s9, 0 h, pH 7.4.
For data set [4] the following is noted: human, s9, 0 h, pH 7.4.
Data set [5] in a line: in vitro. To be noted: CD-1, mouse, s9, pH 7.4, Half-life.
A short description of data set [6]: in vitro. To be noted: cynomolgus monkey, s9, pH 7.4, Half-life.
A short description of data set [7]: in vitro. To be noted: both, CD-1, mouse, hepatocytes.
Data set [8] is described as follows: in vitro. To be noted: both, human, hepatocytes.
The conditions of data set [9]: mouse, in vivo, po; cited from earlier work.
The conditions of data set [10]: in vivo; cited from earlier work. The source holds these as a separate data set.

In the case of `Nc1ccn(C[C@@H](CO)OCP(=O)(O)O)c(=O)n1` [CDV, [S]-1-[3-hydroxy-2-phosphonylmethoxypropyl]cytosine], in data set [1], the oral bioavailability result is “poor oral bioavailability”.
By half-life is commonly meant how long it takes for the measured level to halve. Low values mean fast loss, high ones slow loss. With `CCCCCCCCCCCCCCCCOCCCOP(=O)(O)CO[C@H](CO)Cn1ccc(N)nc1=O` [CMX001, hexadecyloxypropyl ester of CDV], the “Percentage of CMX001 remaining at incubation time point 0 min” value in data set [2], in [3] and in [4] was 100% throughout. Besides, the half-life in data set [5] was more than 1.67 h; in data set [6] it was 8 min; in data set [7] it was 3.55 h; in data set [8] it was 3.8 h. Further, the “orally administered drug accounted for in plasma” value in data set [9] is reported as “approximately 88%”. Moreover, the nephrotoxicity entry in data set [10] is “not been shown to cause nephrotoxicity”.
